Test results: patent publication US20080193398A1, “Derivatives of Heptaazaphenalene, Methods for Obtaining Them, and Their Use as Protecting Agents Against Uv Radiation” (ISDIN, S.A., priority 2005, published 2008)
Where “and” joins values, the source holds several entries; their conditions need not be identical. Equal values may be shown once.

Key:
[1] = UV absorption (UV λmax and εmax) in solution; assay type: physicochemical
Source text: There follow some examples where the UV λmax and εmax have been measured according to general methods known for the person skilled in the art by way of non-restrictive illustration of the present invention.

Row | UV λmax ([1]; DMSO) | εmax ([1]; DMSO) | Compound | further results
1 | 333 nm | 103000 M⁻¹ cm⁻¹ | c1ccc(-c2ccc(NC3=NC4=NC(Nc5ccc(-c6ccccc6)cc5)=NC5=NC(Nc6ccc(-c7ccccc7)cc6)=NC(=N3)N45)cc2)cc1 [Example 6, 2,5,8-tris-(biphenyl-4-ylamino)-1,3,4,6,7,9,9b-heptaazaphenalene] | –
2 | 339 nm | 112000 M⁻¹ cm⁻¹ | O=C(c1ccccc1)c1ccc(NC2=NC3=NC(Nc4ccc(C(=O)c5ccccc5)cc4)=NC4=NC(Nc5ccc(C(=O)c6ccccc6)cc5)=NC(=N2)N34)cc1 [Example 14, 2,5,8-tris-(4-benzoylphenylamino)-1,3,4,6,7,9,9b-heptaazaphenalene] | melting point: > 270 °C
3 | 324 nm | 59000 M⁻¹ cm⁻¹ | COc1ccc(NC2=NC3=NC(Nc4ccc(OC)cc4)=NC4=NC(Nc5ccc(OC)cc5)=NC(=N2)N34)cc1 [Example 21, 2,5,8-tris-(4-methoxyphenylamino)-1,3,4,6,7,9,9b-heptaazaphenalene] | –
4 | 327 nm | 86000 M⁻¹ cm⁻¹ | Cc1ccc(C2=NC3=NC(c4ccc(C)cc4)=NC4=NC(c5ccc(C)cc5)=NC(=N2)N34)cc1 [Example 25, 2,5,8-tris-(4-methylphenyl)-1,3,4,6,7,9,9b-heptaazaphenalene] | –
5 | 288 nm and 354 nm | 66000 M⁻¹ cm⁻¹ and 113000 M⁻¹ cm⁻¹ | CCCCC(CC)COC(=O)/C=C/c1ccc(NC2=NC3=NC(Nc4ccc(/C=C/C(=O)OCC(CC)CCCC)cc4)=NC4=NC(Nc5cccc(/C=C/C(=O)OCC(CC)CCCC)c5)=NC(=N2)N34)cc1 (stereo not drawn) [Example 34, 2-(3-((E)-3-(2-ethylhexyloxy)-3-oxoprop-1-enyl)phenylamino)-5,8-bis-(4-((E) -3-(2-ethylhexyloxy)-3-oxoprop-1-enyl)phenylamino)-1,3,4,6,7,9,9b-heptaazaphenalene] | –
6 | 324 nm | 121000 M⁻¹ cm⁻¹ | CCCCCCCCC(CCCCCC)COC(=O)c1ccc(NC2=NC3=NC(Nc4ccc(C(=O)OCC(CCCCCC)CCCCCCCC)cc4)=NC4=NC(Nc5ccc(C(=O)OCC(CCCCCC)CCCCCCCC)cc5)=NC(=N2)N34)cc1 (stereo not drawn) [Example 38, 2,5,8-tris-(4-(^2-hexyldecyloxycarbonyl)phenylamino)-1,3,4,6,7,9,9b-heptaazaphenalene] | –
7 | 324 nm | 117000 M⁻¹ cm⁻¹ | CCCCCCCCCCCCCCCCCCOC(=O)c1ccc(NC2=NC3=NC(Nc4ccc(C(=O)OCCCCCCCCCCCCCCCCCC)cc4)=NC4=NC(Nc5ccc(C(=O)OCCCCCCCCCCCCCCCCCC)cc5)=NC(=N2)N34)cc1 [Example 40, 2,5,8-tris-(4-(octadecyloxycarbonyl)phenylamino)-1,3,4,6,7,9,9b-heptaazaphenalene] | –
8 | 331 nm | 46000 M⁻¹ cm⁻¹ | c1cc2cc(NC3=NC4=NC(Nc5ccc6[nH]ccc6c5)=NC5=NC(Nc6ccc7[nH]ccc7c6)=NC(=N3)N45)ccc2[nH]1 [Example 46, 2,5,8-tris-(1H-indol-5-ylamino)-1,3,4,6,7,9,9b-heptaazaphenalene] | –
9 | 270 nm | 44000 M⁻¹ cm⁻¹ | Cc1cc(N)c(NC2=NC3=NC(Nc4cc(C)c(C)cc4N)=NC4=NC(Nc5cc(C)c(C)cc5N)=NC(=N2)N34)cc1C [Example 48, 2,5,8-tris-(2-amino-4,5-dimethylphenylamino)-1,3,4,6,7,9,9b-heptaazaphenalene] | –

More lines, now with the values behind:

Row | Compound | UV λmax ([1]; DMSO) | εmax ([1]; DMSO) | further results
10 | c1ccc(-c2ccc(NC3=NC4=NC(Nc5ccc(-c6ccccc6)cc5)=NC5=NC(Nc6ccc(-c7ccccc7)cc6)=NC(=N3)N45)cc2)cc1 | – | – | melting point: > 310 °C
11 | CCCCOC(=O)c1ccc(NC2=NC3=NC(Nc4ccc(C(=O)OCCCC)cc4)=NC4=NC(Nc5ccc(C(=O)OCCCC)cc5)=NC(=N2)N34)cc1 [Example 1, 2,5,8-tris-(4-(butoxycarbonyl)phenylamino)-1,3,4,6,7,9,9b-heptaazaphenalene] | – | – | UV λmax ([1]; CHCl3—EtOH): 325 nm; εmax ([1]; CHCl3—EtOH): 100000 M⁻¹ cm⁻¹; melting point: 289 to 290 °C
12 | CCCCC(CC)COC(=O)c1ccc(NC2=NC3=NC(Nc4ccc(C(=O)OCC(CC)CCCC)cc4)=NC4=NC(Nc5ccc(C(=O)OCC(CC)CCCC)cc5)=NC(=N2)N34)cc1 (stereo not drawn) [Example 2, 2,5,8-tris-(4-(2-ethylhexyloxycarbonyl)phenylamino)-1,3,4,6,7,9,9b-heptaazaphenalene] | – | – | UV λmax ([1]; CHCl3): 326 nm; εmax ([1]; CHCl3): 95000 M⁻¹ cm⁻¹; melting point: 183 to 186 °C
13 | c1ccn2cc(-c3ccc(NC4=NC5=NC(Nc6ccc(-c7cn8ccccc8n7)cc6)=NC6=NC(Nc7ccc(-c8cn9ccccc9n8)cc7)=NC(=N4)N56)cc3)nc2c1 [Example 3, 2,5,8-tris-(4-(imidazo[1,2-a]pyridin-2-yl)-phenylamino)-1,3,4,6,7,9,9b-heptaazaphenalene] | 353 nm | 75000 M⁻¹ cm⁻¹ | –
14 | Cc1cc2c(n1-c1ccc(NC3=NC4=NC(Nc5ccc(-n6c(C)cc7c6CC(C)(C)CC7=O)cc5)=NC5=NC(Nc6ccc(-n7c(C)cc8c7CC(C)(C)CC8=O)cc6)=NC(=N3)N45)cc1)CC(C)(C)CC2=O [Example 4, 2,5,8-tris-(4-(4,5,6,7-tetrahydro-2,6,6-trimethyl-4-oxoindol-1-yl)phenylamine)-1,3,4,6,7,9,9b-heptaazaphenalene] | – | – | UV λmax ([1]; EtOH): 314 nm; εmax ([1]; EtOH): 103000 M⁻¹ cm⁻¹
15 | c1ccc2[nH]c(-c3ccc(NC4=NC5=NC(Nc6ccc(-c7nc8ccccc8[nH]7)cc6)=NC6=NC(Nc7ccc(-c8nc9ccccc9[nH]8)cc7)=NC(=N4)N56)cc3)nc2c1 [Example 7, 2,5,8-tris-(4-(1H-benzo[d]imidazol-2-yl)phenylamino)-1,3,4,6,7,9,9b-heptaazaphenalene] | – | – | UV λmax ([1]; CHCl3-MeOH): 358 nm; εmax ([1]; CHCl3-MeOH): 107000 M⁻¹ cm⁻¹
16 | c1ccc2[nH]c(-c3ccc(NC4=NC5=NC(Nc6ccc(-c7nc8ccccc8[nH]7)cc6)=NC6=NC(Nc7ccc(-c8nc9ccccc9[nH]8)cc7)=NC(=N4)N56)cc3)nc2c1 [Example 8, 2,5,8-tris-(4-(1H-benzo[d]imidazol-2-yl)phenylamino)-1,3,4,6,7,9,9b-heptaazaphenalene] | – | – | melting point: > 275 °C
17 | c1cnn(-c2ccc(NC3=NC4=NC(Nc5ccc(-n6cccn6)cc5)=NC5=NC(Nc6ccc(-n7cccn7)cc6)=NC(=N3)N45)cc2)c1 [Example 15, 2,5,8-tris-(4-(1H-pyrazol-1-yl)phenylamino)-1,3,4,6,7,9,9b-heptaazaphenalene] | 330 nm | 99000 M⁻¹ cm⁻¹ | melting point: 224 to 227 °C
18 | c1ccc2cc(NC3=NC4=NC(Nc5ccc6ccccc6c5)=NC5=NC(Nc6ccc7ccccc7c6)=NC(=N3)N45)ccc2c1 [Example 17, 2,5,8-tris-(naphthalen-2-ylamino)-1,3,4,6,7,9,9b-heptaazaphenalene] | 279 nm and 331 nm | 89000 M⁻¹ cm⁻¹ and 75000 M⁻¹ cm⁻¹ | melting point: > 275 °C
19 | CCCCOC(=O)c1ccc(NC2=NC3=NC(Nc4ccc(C(=O)OCCCC)cc4)=NC4=NC(c5cn(C)c6ccccc56)=NC(=N2)N34)cc1 [Example 18] | 337 nm | 65000 M⁻¹ cm⁻¹ | –
20 | c1ccc(-c2ccc(OC3=NC4=NC(Oc5ccc(-c6ccccc6)cc5)=NC5=NC(Oc6ccc(-c7ccccc7)cc6)=NC(=N3)N45)cc2)cc1 [Example 19, 2,5,8-tris-(biphenyl-4-yloxy)-1,3,4,6,7,9,9b-heptaazaphenalene] | 262 nm | 81000 M⁻¹ cm⁻¹ | –
21 | COc1cccc(NC2=NC3=NC(Nc4cccc(OC)c4)=NC4=NC(Nc5cccc(OC)c5)=NC(=N2)N34)c1 [Example 20, 2,5,8-tris-(3-methoxyphenylamino)-1,3,4,6,7,9,9b-heptaazaphenalene] | – | – | UV λmax ([1]; MeOH): 312 nm; εmax ([1]; MeOH): 62000 M⁻¹ cm⁻¹; melting point: > 275 °C
22 | COC(=O)c1ccc(-c2ccc(NC3=NC4=NC(Nc5ccc(-c6ccc(C(=O)OC)cc6)cc5)=NC5=NC(Nc6ccc(-c7ccc(C(=O)OC)cc7)cc6)=NC(=N3)N45)cc2)cc1 [Example 23, 2,5,8-tris-(methoxycarbonyl-4′-biphenyl-4-ylamino)-1,3,4,6,7,9,9b-heptaazaphenalene] | 346 nm | 99000 M⁻¹ cm⁻¹ | –
23 | c1ccc(Nc2ccc(NC3=NC4=NC(Nc5ccc(Nc6ccccc6)cc5)=NC5=NC(Nc6ccc(Nc7ccccc7)cc6)=NC(=N3)N45)cc2)cc1 [Example 27, 2,5,8-tris-(4-(phenylamino)phenylamino)-1,3,4,6,7,9,9b-heptaazaphenalene] | 360 nm | 60000 M⁻¹ cm⁻¹ | –
24 | CCCCC(CC)CNC1=NC2=NC(NCC(CC)CCCC)=NC3=NC(NCC(CC)CCCC)=NC(=N1)N23 (stereo not drawn) [Example 29, 2,5,8-tris-(2-ethylhexylamino)-1,3,4,6,7,9,9b-heptaazaphenalene] | 265 nm | 92000 M⁻¹ cm⁻¹ | –
25 | O=[N+]([O-])c1cccc(NC2=NC3=NC(Nc4cccc([N+](=O)[O-])c4)=NC4=NC(Nc5cccc([N+](=O)[O-])c5)=NC(=N2)N34)c1 [Example 35, 2,5,8-tris-(3-nitrophenylamino)-1,3,4,6,7,9,9b-heptaazaphenalene] | 308 nm | 113000 M⁻¹ cm⁻¹ | –
26 | C(=C\c1cccc(NC2=NC3=NC(Nc4cccc(/C=C/c5ccccc5)c4)=NC4=NC(Nc5cccc(/C=C/c6ccccc6)c5)=NC(=N2)N34)c1)/c1ccccc1 [Example 37, 2,5,8-tris-((3-(E)-styrylphenyl)amino)-1,3,4,6,7,9,9b-heptaazaphenalene] | 316 nm | 167000 M⁻¹ cm⁻¹ | –
27 | CCCCCCCCCCCCOC(=O)c1ccc(NC2=NC3=NC(Nc4ccc(C(=O)OCCCCCCCCCCCC)cc4)=NC4=NC(Nc5ccc(C(=O)OCCCCCCCCCCCC)cc5)=NC(=N2)N34)cc1 [Example 44, 2,5,8-tris-(4-(dodecyloxycarbonyl)phenylamino)-1,3,4,6,7,9,9b-heptaazaphenalene] | 326 nm | 87000 M⁻¹ cm⁻¹ | –
28 | CC12CCC(C1)C(C)(C)C2OC(=O)c1ccc(NC2=NC3=NC(Nc4ccc(C(=O)OC5C6(C)CCC(C6)C5(C)C)cc4)=NC4=NC(Nc5ccc(C(=O)OC6C7(C)CCC(C7)C6(C)C)cc5)=NC(=N2)N34)cc1 (stereo not drawn) [Example 45] | 330 nm | 150000 M⁻¹ cm⁻¹ | –
